Results published in patent US12637424B2, “Pharmaceutical salt of an arylpyrrole derivative” (SENTINEL ONCOLOGY LIMITED, priority 2020, dated 2026).

How the values were obtained:
[1] = Chiral stability (interconversion) of isolated atropisomers in ethanol; assay type: physicochemical; conditions: for % ee of sample @ 40° C. / % ee sample @ 80° C.: ethanol; for interconversion / racemization of atropisomers: heating for 10 days at 40° C. and 80° C.
Description: To assess the interconversion of atropisomer A-1 and atropisomer A-2, chiral stability was monitored at 40° C. and 80° C. […] 1. 2×1 mg of pure atropisomer was dissolved in 1 mL of ethanol in a sealed-dram vial. • 2. One set of vials was heated at 40° C. and another set at 80° C. • 3. At specified time-points a 20 μL aliquot from each stock solution (1 mL) was taken and quenched into a HPLC vial containing a 80 μL solution of hexane:ethanol; 80:20 to afford a final concentration of […] and the sample was analysed by chiral HPLC • 4. Analysis was carried out at the following time-points: 0 h, 24 h, 48 h, 72 h, 96 h and 240 h for the samples kept at 40° C. and 24 h, 96 h and 240 h for the samples kept at 80° C. using chiral HPLC method 5

[2] = test system: OCI-LY-19; test: Cancer cell line panel proliferation (CellTiter-Glo); assay type: cell-based; conditions: OCI-LY-19, Blood/Lymphoma, 72 hours
Description: (§1) Screening against diverse cancer cell lines was performed to identify tumour types displaying sensitivity to atropisomers A-1 and A-2. A panel of 48 cancer-derived cell lines was screened in a high-throughput proliferation assay using dilutions of atropisomers A-1/A-2. Cell lines that were screened included those representing cancer of the pancreas, large intestine/colorectum, lung, brain and nerves, and lymphoma and leukaemia cell lines. Cell lines were treated with serial half-log dilutions of compound and assayed 72 hours later for proliferation using CellTiter-Glo Assay (Promega). IC50 values were calculated by fitting the dose-response data using a nonlinear regression model.

[3] = test system: LoVo; test: as above; assay type: cell-based; conditions: Large intestine/Colorectum, 72 hours
Description: as §1

[4] = test system: Capan-1; test: as above; assay type: cell-based; conditions: Capan-1, Pancreas, 72 hours
Description: as §1

[5] = test system: A-172; test: as above; assay type: cell-based; conditions: A-172, Brain&Nerves, 72 hours
Description: as §1

[6] = test system: NAMALWA; test: as above; assay type: cell-based; conditions: Blood/Lymphoma, 72 hours
Description: as §1

[7] = test system: Z-138; test: as above; assay type: cell-based; conditions: Z-138, Blood/Lymphoma, 72 hours
Description: as §1

[8] = test system: SU-DHL-2; test: as above; assay type: cell-based; conditions: SU-DHL-2, Blood/Lymphoma, 72 hours
Description: as §1

[9] = test system: Toledo; test: as above; assay type: cell-based; conditions: Blood/Lymphoma, 72 hours
Description: as §1

[10] = test system: NCI-H460; test: as above; assay type: cell-based; conditions: NCI-H460, Lung, 72 hours
Description: as §1

[11] = test system: MIA PaCa-2; test: as above; assay type: cell-based; conditions: MIA PaCa-2, Pancreas, 72 hours
Description: as §1

[12] = test system: SW480; test: as above; assay type: cell-based; conditions: SW480, Large intestine/Colorectum, 72 hours
Description: as §1

[13] = test system: NCI-H1299; test: as above; assay type: cell-based; conditions: NCI-H1299, Lung, 72 hours
Description: as §1

[14] = test system: D283 Med; test: as above; assay type: cell-based; conditions: Brain&Nerves, 72 hours
Description: as §1

[15] = test system: MV-4-11; test: as above; assay type: cell-based; conditions: MV-4-11, Blood/Leukaemia, 72 hours
Description: as §1

[16] = test system: NCI-H1975; test: as above; assay type: cell-based; conditions: NCI-H1975, Lung, 72 hours
Description: as §1

[17] = test system: SW1088; test: as above; assay type: cell-based; conditions: SW1088, Brain&Nerves, 72 hours
Description: as §1

[18] = test system: SW620; test: as above; assay type: cell-based; conditions: SW620, Large intestine/Colorectum, 72 hours
Description: as §1

[19] = test system: HCT 116; test: as above; assay type: cell-based; conditions: HCT 116, Large intestine/Colorectum, 72 hours
Description: as §1

[20] = test system: COLO 205; test: as above; assay type: cell-based; conditions: COLO 205, Large intestine/Colorectum, 72 hours
Description: as §1

[21] = test system: NCI-H1792; test: as above; assay type: cell-based; conditions: NCI-H1792, Lung, 72 hours
Description: as §1

[22] = test system: U118 MG; test: as above; assay type: cell-based; conditions: Brain&Nerves, 72 hours
Description: as §1

[23] = test system: Panc 10.05; test: as above; assay type: cell-based; conditions: Panc 10.05, Pancreas, 72 hours
Description: as §1

[24] = test system: NCI-H1373; test: as above; assay type: cell-based; conditions: NCI-H1373, Lung, 72 hours
Description: as §1

[25] = test system: KG-1; test: as above; assay type: cell-based; conditions: KG-1, Blood/Leukaemia, 72 hours
Description: as §1

[26] = test system: Kasumi-1; test: as above; assay type: cell-based; conditions: Kasumi-1, Blood/Leukaemia, 72 hours
Description: as §1

[27] = test system: Raji; test: as above; assay type: cell-based; conditions: Blood/Lymphoma, 72 hours
Description: as §1

[28] = test system: HCC44; test: as above; assay type: cell-based; conditions: HCC44, Lung, 72 hours
Description: as §1

[29] = test system: Ramos; test: as above; assay type: cell-based; conditions: Blood/Lymphoma, 72 hours
Description: as §1

[30] = test system: GRANTA-519; test: as above; assay type: cell-based; conditions: GRANTA-519, Blood/Lymphoma, 72 hours
Description: as §1

[31] = test system: BxPC-3; test: as above; assay type: cell-based; conditions: BxPC-3, Pancreas, 72 hours
Description: as §1

[32] = test system: LN-229; test: as above; assay type: cell-based; conditions: LN-229, Brain&Nerves, 72 hours
Description: as §1

[33] = test system: HBL-1; test: as above; assay type: cell-based; conditions: HBL-1, Blood/Lymphoma, 72 hours
Description: as §1

[34] = test system: JVM-2; test: as above; assay type: cell-based; conditions: JVM-2, Blood/Lymphoma, 72 hours
Description: as §1

With `CN(C)CCNC(=O)c1ccc(-c2ccc(-c3ccc(Cl)cc3)n2-c2ccccc2C(F)(F)F)cc1` (single isomer, unassigned) [Atropisomer A-2] the “% ee of sample @ 40° C.” value ([1]; 0 h) was 97.20 % ee, the “% ee of sample @ 40° C.” value ([1]; 24 h) was 97.34 % ee and the “% ee of sample @ 40° C.” value ([1]; 48 h) was 97.30 % ee. For the same compound, the “% ee of sample @ 40° C.” value ([1]; 72 h) was 97.24 % ee, the “% ee of sample @ 40° C.” value ([1]; 96 h) was 97.14 % ee and the “% ee of sample @ 40° C.” value ([1]; 10 days) was 97.46 % ee. The “% ee sample @ 80° C.” value ([1]; 0 h) was 97.20 % ee, the “% ee sample @ 80° C.” value ([1]; 24 h) was 95.62 % ee and the “% ee sample @ 80° C.” value ([1]; 96 h) was 96.62 % ee. The “% ee sample @ 80° C.” value ([1]; 10 days) was 97.12 % ee, the “interconversion / racemization of atropisomers” value [1] was “no interconversion was observed” and the IC50 ([2]; Homo sapiens, OCI-LY19) was 220 nM. It also gave an IC50 ([3]; Homo sapiens) of 540 nM, an IC50 ([4]; Homo sapiens) of 1230 nM and an IC50 ([5]; Homo sapiens) of 340 nM. For the same compound, the IC50 [6] was 250 nM, the IC50 ([7]; Homo sapiens) was 210 nM and the IC50 ([8]; Homo sapiens) was 200 nM. For the same compound, the IC50 ([9]; Homo sapiens) was 880 nM, the IC50 ([10]; Homo sapiens) was 300 nM and the IC50 ([11]; Homo sapiens) was 330 nM. The IC50 ([12]; Homo sapiens) was 870 nM, the IC50 ([13]; Homo sapiens) was 370 nM and the IC50 ([14]; Homo sapiens) was 310 nM. It also gave an IC50 ([15]; Homo sapiens, MV4-11) of 280 nM, an IC50 ([16]; Homo sapiens) of 630 nM and an IC50 ([17]; Homo sapiens) of 770 nM. The IC50 ([18]; Homo sapiens, SW-620) was 190 nM, the IC50 ([19]; Homo sapiens) was 230 nM and the IC50 ([20]; Homo sapiens) was 380 nM. For the same compound, the IC50 ([21]; Homo sapiens) was 250 nM, the IC50 ([22]; Homo sapiens, U-118-MG) was 470 nM and the IC50 ([23]; Homo sapiens, Panc1005) was 1140 nM. The IC50 ([24]; Homo sapiens) was 3210 nM, the IC50 ([25]; Homo sapiens) was 460 nM and the IC50 ([26]; Homo sapiens) was 330 nM. For the same compound, the IC50 ([27]; Homo sapiens) was 360 nM, the IC50 ([28]; Homo sapiens) was 480 nM and the IC50 ([29]; Homo sapiens) was 340 nM. For the same compound, the IC50 ([30]; Homo sapiens) was 220 nM, the IC50 ([31]; Homo sapiens) was 300 nM and the IC50 ([32]; Homo sapiens) was 310 nM. It also gave an IC50 ([33]; HBL1) of 660 nM and an IC50 ([34]; Homo sapiens) of 380 nM.

With `CN(C)CCNC(=O)c1ccc(-c2ccc(-c3ccc(Cl)cc3)n2-c2ccccc2C(F)(F)F)cc1` (single isomer, unassigned; atropisomer a) [Atropisomer A-1] the “% ee of sample @ 40° C.” value ([1]; 0 h) was 100 % ee, the “% ee of sample @ 40° C.” value ([1]; 24 h) was 100 % ee and the “% ee of sample @ 40° C.” value ([1]; 48 h) was 100 % ee. For the same compound, the “% ee of sample @ 40° C.” value ([1]; 72 h) was 100 % ee, the “% ee of sample @ 40° C.” value ([1]; 96 h) was 100 % ee and the “% ee of sample @ 40° C.” value ([1]; 10 days) was 100 % ee. The “% ee sample @ 80° C.” value ([1]; 0 h) was 100 % ee, the “% ee sample @ 80° C.” value ([1]; 24 h) was 100 % ee and the “% ee sample @ 80° C.” value ([1]; 96 h) was 100 % ee. For the same compound, the “% ee sample @ 80° C.” value ([1]; 10 days) was 100 % ee, the “interconversion / racemization of atropisomers” value [1] was “no interconversion was observed” and the IC50 [2] was 6670 nM. The IC50 [3] was 8360 nM, the IC50 [4] was over 10000 nM and the IC50 [5] was 7070 nM. For the same compound, the IC50 [6] was 7050 nM, the IC50 [7] was 7040 nM and the IC50 [8] was 7010 nM. It also gave an IC50 [9] of over 10000 nM, an IC50 [10] of 8130 nM and an IC50 [11] of 9170 nM. It also gave an IC50 [12] of 7550 nM, an IC50 [13] of 8250 nM and an IC50 [14] of 9260 nM. It also gave an IC50 [15] of 6490 nM, an IC50 [16] of 5140 nM and an IC50 [17] of 8490 nM. The IC50 [18] was 8350 nM, the IC50 [19] was 7360 nM and the IC50 [20] was 6750 nM. The IC50 [21] was 7730 nM, the IC50 [22] was 7600 nM and the IC50 [23] was 9000 nM. The IC50 [24] was over 10000 nM, the IC50 [25] was over 10000 nM and the IC50 [26] was 5130 nM. The IC50 [27] was 3910 nM, the IC50 [28] was 8260 nM and the IC50 [29] was 3990 nM. The IC50 [30] was 7420 nM, the IC50 [31] was 6970 nM and the IC50 [32] was 7370 nM. It also gave an IC50 [33] of 9940 nM and an IC50 [34] of 4710 nM.
